The test system of data set [1] is Mycobacterium tuberculosis. As to the kind of experiment: microbe, parasite or virus in culture. As to conditions: H37Rv ATCC 27294, 168 h.
Description: Antitubercular activity against Mycobacterium tuberculosis H37Rv ATCC 27294 after 7 days by REMA method
In data set [2] the test system is Mycobacterium tuberculosis. The class given is functional. The note with it: H37Rv ATCC 27294, 168 h.
Data set [3] deals with Mycobacterium tuberculosis. It counts as functional. The note with it: H37Rv.
In data set [4] the test system is Mycobacterium tuberculosis. The class given is functional. The note with it: H37Rv ATCC 27294, 144 h.
Data set [5] is described as follows: Induction of nitric oxide production assessed as nitrite level at 10^-4M measured after 1 hr in presence 1:50 molar excess of L-cysteine by Griess reagent based spectrophotometer relative to control. It counts as physicochemical. The note with it: 100 µM.
Data set [6] is described as follows: n-octanol-water partition coefficient, log P of the compound by HPLC method. It counts as physicochemical.
For data set [7], the system named is Mycobacterium tuberculosis. It counts as functional. As to conditions: H37Rv ATCC 27294, 168 h. This is another data set of the same source.
The nature of data set [8]: Cytotoxicity against human MRC5 cells measured after 24 hrs by resazurin based fluorescence method. It counts as toxicity, cell-based. A general note: Alamar Blue is a resazurin reagent that responds to reducing activity.
Data set [9] can be described thus: Cytotoxicity against mouse J774A.1 cells measured after 24 hrs by resazurin based fluorescence method. The class given is toxicity, J774.A1.
The nature of data set [10]: in vitro. As to conditions: mouse, J774A.1 cells.
Description: Selectivity index, ratio of IC50 for mouse J774A.1 cells to MIC90 for Mycobacterium tuberculosis H37Rv ATCC 27294
Data set [11] in a line: in vitro. As to conditions: human, MRC5 cells.
Description: Selectivity index, ratio of IC50 for human MRC5 cells to MIC90 for Mycobacterium tuberculosis H37Rv ATCC 27294
A short description of data set [12]: Chemical stability in pH 1 PBS buffer assessed as compound degradation after 1 hr by HPLC-MS/MS method. The note with it: read-out: Drug degradation. The class given is physicochemical.
Data set [13] is described as follows: Chemical stability in pH 9 PBS buffer assessed as compound degradation after 1 hr by HPLC-MS/MS method. It counts as physicochemical. As to conditions: read-out: Drug degradation.
Data set [14] can be described thus: Chemical stability in pH 5 PBS buffer after 6 hrs by HPLC-MS/MS method. The note with it: pH 5, 6 h. The class given is physicochemical.
Data set [15] is described as follows: Chemical stability in pH 7.4 PBS buffer assessed as compound degradation after 6 hrs by HPLC-MS/MS method. It counts as physicochemical. The note with it: read-out: Drug degradation.
Data set [16] can be described thus: Chemical stability in pH 5 PBS buffer assessed as compound degradation after 24 hrs by HPLC-MS/MS method. It counts as physicochemical. As to conditions: read-out: Drug degradation.
Data set [17] is described as follows: Chemical stability in pH 7.4 PBS buffer assessed as compound degradation after 24 hrs by HPLC-MS/MS method. The class given is physicochemical. As to conditions: read-out: Drug degradation.

From ChEMBL document CHEMBL3872213, “Synthesis and biological activity of furoxan derivatives against Mycobacterium tuberculosis” (Eur J Med Chem, 2016) come the findings set out here.

Values after ≈ are worked out from the molar mass of the structure shown. A value given as a limit tells only on which side of the number the result lay.

Molecule `O=C(CC(=O)C(F)(F)F)c1cccs1` had an MIC90 in data set [1] of 10.9 µM (≈ 2.42 µg/mL).

In the case of `c1csc(-c2nc3ccccc3s2)c1`, the MIC90 in [1] was 50 µM (≈ 10.9 µg/mL).

With `CN(C)c1ccc(/C=N/c2ccc(O)cc2)cc1`, the MIC90 in data set [1] stood at 15.6 µM (≈ 3.75 µg/mL).

In [2], `C/C(=N\NC(=S)Nc1ccccc1)c1ccccn1` displayed an MIC90 of 15.6 µM (≈ 4.22 µg/mL).

Regarding `O=S(=O)(c1ccccc1)c1no[n+]([O-])c1S(=O)(=O)c1ccccc1`, the MIC90 in data set [1] was 6.2 µM (≈ 2.27 µg/mL).

For `O=C(N/N=C/c1ccc(O)cc1)c1ccncc1`, the MIC90 in data set [3] is 1 µM (≈ 0.241 µg/mL); in [1], 1.04 µM (≈ 0.251 µg/mL).

In data set [4], `CC(C)COC(=O)c1cnccn1` gave an MIC90 of 2 µM (≈ 0.36 µg/mL).

`O=Cc1cccc(Oc2no[n+]([O-])c2-c2ccccc2)c1`: the Activity in data set [5] was found to be 23.1%. The same molecule returned an MIC90 in data set [1] of more than 62 µM.

`Cc1c(Oc2ccccc2C=O)no[n+]1[O-]`: in data set [5], the Activity was determined as 0%. Further, in data set [1], the MIC90 is more than 62 µM.

Take `Cc1c(Oc2cccc(/C=N/NC(=O)c3ccncc3)c2)no[n+]1[O-]`: in data set [5], the Activity was found to be 0.16%. In [6], the logP (usually the decadic logarithm of the partition coefficient of the neutral form, usually between octanol and water) was determined as 1.3. In data set [1], this molecule returned an MIC90 of more than 62 µM.

For the molecule `O=C(N/N=C/c1cccc(Oc2no[n+]([O-])c2S(=O)(=O)c2ccccc2)c1)c1ccncc1`, the MIC90 is more than 62 µM in [7] and 1.61 µM (≈ 0.749 µg/mL) in data set [1]. Besides, the IC50 (usually the concentration at which inhibition is half-maximal) at 24 h was 30.1 µM in data set [8] and 4.3 µM in data set [9]. Moreover, the Activity in data set [5] was 38.5%. For the same molecule, in data set [6], the logP was 2.3. Also, the selectivity ratio in the data set “in vitro [10]” is 3; in “in vitro [11]” it was 14.1.

Turning to `COc1cc(/C=N/c2ccc(O)cc2)cc(OC)c1OC`, in data set [1], the MIC90 came to 15.6 µM (≈ 4.48 µg/mL).

On to `Cc1c(Oc2cccc(C=O)c2)no[n+]1[O-]`, for which the Activity in [5] was found to be 0%. Besides, the MIC90 in data set [1] was more than 62 µM.

On to `O=C(N/N=C/c1cccc(Oc2no[n+]([O-])c2-c2ccccc2)c1)c1ccncc1`, for which, in data set [5], the Activity amounted to 6.87%. This molecule also came in with a logP in data set [6] of 2.9. For the same molecule, the MIC90 in data set [1] is more than 62 µM.

On to `O=C(N/N=C/c1ccc(Oc2no[n+]([O-])c2-c2ccccc2)cc1)c1ccncc1`, for which the MIC90 is more than 62 µM in [7] and 11.8 µM (≈ 4.74 µg/mL) in data set [1]. Besides, the IC50 at 24 h in [8] turned out to be 623 µM; in [9], 409 µM. In [5], the Activity worked out at 7.33%. In data set [6], this molecule gave a logP of 2.9. Further, the selectivity ratio in the data set “in vitro [10]” was determined as 34.8; in the data set “in vitro [11]”, 52.7.

With `O=Cc1ccccc1Oc1no[n+]([O-])c1-c1ccccc1`, the Activity in [5] amounted to 25.1%. This molecule gave an MIC90 in data set [1] of more than 62 µM.

Consider `O=C(N/N=C/c1ccc(Oc2no[n+]([O-])c2S(=O)(=O)c2ccccc2)cc1)c1ccncc1`, for which the MIC90 in data set [7] is more than 62 µM; in data set [1], 1.03 µM (≈ 0.479 µg/mL). Also, the half-inhibitory concentration (IC50) at 24 h in [8] was 43 µM; in data set [9] it was 10.8 µM. The Activity in data set [5] was 43.5%. Moreover, the logP in data set [6] came to 2.1. Also, the degraded at 1 h in data set [12] worked out at 90%; in [13], 50%. In [14], the Stability result is reported as “Stable”. In addition, the degraded at 6 h in data set [15] was 15%. Besides, the degraded at 24 h in data set [16] and in data set [17] was 20% in each case. Besides, the results for the selectivity ratio in the data set “in vitro [10]” and in “in vitro [11]” were 12 and 20.3, respectively.

As to `O=C(NC(=S)N(c1ccccc1)c1ccccc1)c1ccccc1`, the MIC90 in data set [1] turned out to be 25 µM (≈ 8.31 µg/mL).

`O=C(N/N=C/c1ccccc1Oc1no[n+]([O-])c1-c1ccccc1)c1ccncc1`: the Activity in data set [5] is 11.2%. In data set [6], this molecule had a logP of 2.7. In addition, the MIC90 in [1] was more than 62 µM.

In the case of `O=Cc1ccc(Oc2no[n+]([O-])c2S(=O)(=O)c2ccccc2)cc1`, the IC50 at 24 h in [9] turned out to be 2.2 µM. Also, the Activity in [5] was found to be 24.4%. The selectivity ratio in “in vitro [10]” turned out to be 0.1. Further, in [1], the MIC90 came out at 26 µM (≈ 9.01 µg/mL).

In turn, `CCN(CC)C(=S)NC(=O)c1ccco1` showed an MIC90 in data set [1] of 25 µM (≈ 5.66 µg/mL).

`CN(C)C(=S)NC(=O)c1ccccc1` returned an MIC90 in data set [1] of 25 µM (≈ 5.21 µg/mL).

Turning to `O=Cc1ccc(Oc2no[n+]([O-])c2-c2ccccc2)cc1`, the Activity in [5] amounted to 19.4%. Moreover, the MIC90 in [1] was more than 62 µM.

In data set [1], `CCCCN(CCCC)C(=S)NC(=O)c1ccccc1` yielded an MIC90 of 25 µM (≈ 7.31 µg/mL).

`NC(=O)c1c(CBr)no[n+]1[O-]` showed an MIC90 in data set [1] of 3 µM (≈ 0.666 µg/mL).

With `O=Cc1ccccc1Oc1no[n+]([O-])c1S(=O)(=O)c1ccccc1`, in data set [9], the IC50 at 24 h turned out to be 7.4 µM. Further, the Activity in data set [5] came to 21.2%. The selectivity ratio in the data set “in vitro [10]” came to 0.4. Further, the MIC90 in [1] stood at 20.2 µM (≈ 7.01 µg/mL).

For `Cc1c(Oc2ccc(/C=N/NC(=O)c3ccncc3)cc2)no[n+]1[O-]`, the Activity in data set [5] worked out at 2.02%. This molecule displayed a logP in data set [6] of 1.3. In data set [1], the MIC90 is more than 62 µM.

Molecule `O=Cc1cccc(Oc2no[n+]([O-])c2S(=O)(=O)c2ccccc2)c1` registered an IC50 at 24 h in data set [9] of 5.6 µM. In addition, in data set [5], the Activity worked out at 27.1%. In addition, in the data set “in vitro [10]”, the selectivity ratio stood at 2. Besides, the MIC90 in data set [1] amounted to 20.9 µM (≈ 7.23 µg/mL).

The molecule `O=[N+]([O-])c1ccc(/C=N/c2ccc(O)cc2)cc1` came in with an MIC90 in data set [1] of 15.6 µM (≈ 3.78 µg/mL).

In the case of `Cc1c(Oc2ccccc2/C=N/NC(=O)c2ccncc2)no[n+]1[O-]`, the Activity in data set [5] came out at 0.35%. The logP in [6] worked out at 1.4. Besides, the MIC90 in [1] is more than 62 µM.

As to `O=C(N/N=C/c1ccccc1Oc1no[n+]([O-])c1S(=O)(=O)c1ccccc1)c1ccncc1`, the MIC90 in data set [7] is more than 62 µM; in data set [1] it was 8.6 µM (≈ 4 µg/mL). The IC50 at 24 h in data set [8] stood at 34.4 µM; in data set [9] it was 10.8 µM. Besides, the Activity in [5] worked out at 44.2%. In [6], this molecule gave a logP of 2.2. The values for the selectivity ratio in “in vitro [10]” and in “in vitro [11]” were 1.25 and 3.78, respectively.

With `Cc1c(Oc2ccc(C=O)cc2)no[n+]1[O-]`, the Activity in [5] is 0%. The molecule further returned an MIC90 in data set [1] of more than 62 µM.

In data set [2], `C/C(=N\NC(N)=S)c1ccccn1` came in with an MIC90 of 31.3 µM (≈ 6.08 µg/mL).

In [1], `O=C(CC(=O)C(F)(F)F)c1ccccc1` gave an MIC90 of 9.61 µM (≈ 2.08 µg/mL).

As to `O=C(N/N=C/c1cccc(O)c1)c1ccncc1`, the MIC90 in data set [1] came to 104 µM (≈ 25 µg/mL).

Regarding `CNC(=S)N/N=C(\C)c1ccccn1`, the MIC90 in data set [2] worked out at 7.8 µM (≈ 1.62 µg/mL).

`O=S(=O)(c1ccccc1)c1no[n+]([O-])c1-c1ccccc1`: the MIC90 in data set [1] is 82 µM (≈ 24.8 µg/mL).

For `COc1ccc(/C=N/CC/N=C/c2ccc(OC)cc2)cc1`, the MIC90 in data set [1] came out at 25 µM (≈ 7.41 µg/mL).

On to `N[C@@H]1CONC1=O` [CYCLOSERINE], for which, in data set [3], the MIC90 worked out at 245 µM (≈ 25 µg/mL).

`NNC(=O)c1ccncc1` [ISONIAZID]: the Activity in [5] turned out to be 0%. For the same molecule, the MIC90 in data set [1] was 0.11 µM (≈ 0.0151 µg/mL).

With `O=[N+]([O-])O[C@H]1CO[C@H]2[C@@H]1OC[C@H]2O[N+](=O)[O-]` [ISOSORBIDE DINITRATE], the Activity in [5] was in the range of 7.17 to 7.5 mol/mol.

As to `NC[C@H]1O[C@H](O[C@H]2[C@H](O)[C@@H](O[C@H]3O[C@H](CO)[C@@H](O)[C@H](N)[C@H]3O)[C@H](N)C[C@@H]2N)[C@H](O)[C@@H](O)[C@@H]1O` [KANAMYCIN], in [3], the MIC90 was 3.4 µM (≈ 1.65 µg/mL).

In [3], `NC(=O)c1cnccn1` [PYRAZINAMIDE] registered an MIC90 of more than 48 µM.

For the molecule `CO[C@H]1/C=C/O[C@@]2(C)Oc3c(C)c(O)c4c(O)c(c(/C=N/N5CCN(C)CC5)c(O)c4c3C2=O)NC(=O)/C(C)=C\C=C\[C@H](C)[C@H](O)[C@@H](C)[C@@H](O)[C@@H](C)[C@H](OC(C)=O)[C@@H]1C` [RIFAMPIN], the Activity in data set [5] amounted to 0%. The molecule also gave an MIC90 in [1] of 0.5 µM (≈ 0.411 µg/mL).

In turn, `O=C(N/N=C/c1ccccc1O)c1ccncc1` [SALINAZID] displayed an MIC90 in [1] of 12.4 µM (≈ 3 µg/mL).
